According to patent publication US9527869B2, “Indolizine derivatives as phoshoinositide 3-kinases inhibitors” (CHIESI FARMACEUTICI S.P.A., priority 2014, dated 2016):

What was measured:
Format in all cases: biochemical
[1] = target: T1, PI3Kγ (Homo sapiens, UniProt P48736); experiment: In vitro determination of the PI3K enzyme inhibitory activity in the cell free assay (ADP-Glo Kinase Assay), PI3Kγ; conditions: ATP 30 μM, read-out: PI3K gamma inhibition
T1 construct: purchased Millipore Ltd (Billerica, Mass.)
T1 sequence (P48736 whole entry): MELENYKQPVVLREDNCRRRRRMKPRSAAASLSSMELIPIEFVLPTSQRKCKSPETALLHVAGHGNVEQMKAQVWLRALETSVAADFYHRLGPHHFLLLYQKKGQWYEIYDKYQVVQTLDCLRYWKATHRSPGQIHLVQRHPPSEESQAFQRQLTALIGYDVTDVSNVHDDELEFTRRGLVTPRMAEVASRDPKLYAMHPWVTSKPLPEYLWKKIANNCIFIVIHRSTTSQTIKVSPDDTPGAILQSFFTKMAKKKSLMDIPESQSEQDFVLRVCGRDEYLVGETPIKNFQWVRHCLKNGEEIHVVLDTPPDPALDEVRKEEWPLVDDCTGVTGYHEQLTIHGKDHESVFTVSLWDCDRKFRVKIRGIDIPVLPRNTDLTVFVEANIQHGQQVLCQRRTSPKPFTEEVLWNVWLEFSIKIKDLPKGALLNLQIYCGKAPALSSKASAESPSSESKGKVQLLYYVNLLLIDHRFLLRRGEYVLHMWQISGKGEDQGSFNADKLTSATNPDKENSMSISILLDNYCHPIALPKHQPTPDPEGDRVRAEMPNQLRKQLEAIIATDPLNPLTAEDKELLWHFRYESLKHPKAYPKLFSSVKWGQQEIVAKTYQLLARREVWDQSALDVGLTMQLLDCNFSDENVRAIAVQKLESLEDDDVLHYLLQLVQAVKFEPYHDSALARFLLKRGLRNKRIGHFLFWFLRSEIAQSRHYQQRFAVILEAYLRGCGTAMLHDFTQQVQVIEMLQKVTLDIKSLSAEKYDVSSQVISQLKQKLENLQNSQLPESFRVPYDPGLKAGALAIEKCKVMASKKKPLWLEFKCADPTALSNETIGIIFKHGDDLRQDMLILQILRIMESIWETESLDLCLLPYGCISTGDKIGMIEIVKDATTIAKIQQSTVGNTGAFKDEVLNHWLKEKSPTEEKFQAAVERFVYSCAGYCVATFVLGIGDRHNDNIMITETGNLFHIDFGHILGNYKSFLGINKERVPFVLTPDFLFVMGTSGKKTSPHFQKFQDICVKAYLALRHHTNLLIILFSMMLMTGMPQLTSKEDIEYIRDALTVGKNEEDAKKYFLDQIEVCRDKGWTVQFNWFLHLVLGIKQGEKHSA
Procedure: (§1) In vitro Determination of the PI3K Enzyme Inhibitory Activity in the Cell Free Assay
(§2) Human recombinant proteins PI3Kα, PI3Kβ, PI3Kγ and PI3Kδ were purchased from Millipore Ltd (Billerica, Mass.). Compounds were dissolved at 0.5 mM in DMSO and were tested at different concentrations for their activity against PI3Ks using the ADP-Glo™ Kinase Assay (Promega, Madison Wis.) according to the manufacturer's instructions.
(§3) Briefly, the kinase reactions were performed in 384-well white plates (Greiner Bio-One GmbH, Frickenhausen). Each well was loaded with 0.1 μl of test compounds and 2.5 μl of 2× reaction buffer (40 mM Tris pH7.5, 0.5 mM EGTA, 0.5 mM Na3VO4, 5 mM β-glycerophosphate, 0.1 mg/ml BSA, 1 mM DTT), containing 50 μM PI and PS substrates (L-α-phosphatidylinositol sodium salt and L-α-phosphatidyl-L-serine, Sigma-Aldrich, St. Louis Mo.) and the PI3K recombinant proteins (PI3Kγ 0.25 ng/μl, PI3Kδ 1 ng/μl, PI3Kα 0.125 ng/μl, PI3Kβ 1 ng/μl).
(§4) The reactions were started by adding 2.5 μl of 2×ATP solution to each well (final concentrations: PI3Kγ ATP 30 μM; PI3Kδ ATP 80 μM; PI3KαATP 50 μM; PI3Kβ ATP 100 μM) and incubated for 60 min at room temperature. Subsequently, each kinase reaction was incubated for 40 min with 5 μl ADP-Glo™ Reagent, allowing depletion of unconsumed ATP. Then, the Kinase Detection Reagent (10 μl) was added in each well to convert ADP to ATP and to allow the newly synthesized ATP to be measured using a luciferase/luciferin reaction. Following 60 min incubation, the luminescence signal was measured using a Wallac EnVision® multilabel reader (PerkinElmer, Waltham Mass.).
(§5) Curve fitting and IC50 calculation were carried out using a four-parameter logistic model in XLfit (IDBS, Guilford, UK) for Microsoft Excel (Microsoft, Redmont, Wash.).

[2] = target: T2, PI3Kδ (Homo sapiens, UniProt O00329); experiment: In vitro determination of the PI3K enzyme inhibitory activity in the cell free assay (ADP-Glo Kinase Assay), PI3Kδ; conditions: ATP 80 μM, read-out: PI3K delta inhibition
T2 construct: purchased Millipore Ltd (Billerica, Mass.)
T2 sequence (O00329 whole entry): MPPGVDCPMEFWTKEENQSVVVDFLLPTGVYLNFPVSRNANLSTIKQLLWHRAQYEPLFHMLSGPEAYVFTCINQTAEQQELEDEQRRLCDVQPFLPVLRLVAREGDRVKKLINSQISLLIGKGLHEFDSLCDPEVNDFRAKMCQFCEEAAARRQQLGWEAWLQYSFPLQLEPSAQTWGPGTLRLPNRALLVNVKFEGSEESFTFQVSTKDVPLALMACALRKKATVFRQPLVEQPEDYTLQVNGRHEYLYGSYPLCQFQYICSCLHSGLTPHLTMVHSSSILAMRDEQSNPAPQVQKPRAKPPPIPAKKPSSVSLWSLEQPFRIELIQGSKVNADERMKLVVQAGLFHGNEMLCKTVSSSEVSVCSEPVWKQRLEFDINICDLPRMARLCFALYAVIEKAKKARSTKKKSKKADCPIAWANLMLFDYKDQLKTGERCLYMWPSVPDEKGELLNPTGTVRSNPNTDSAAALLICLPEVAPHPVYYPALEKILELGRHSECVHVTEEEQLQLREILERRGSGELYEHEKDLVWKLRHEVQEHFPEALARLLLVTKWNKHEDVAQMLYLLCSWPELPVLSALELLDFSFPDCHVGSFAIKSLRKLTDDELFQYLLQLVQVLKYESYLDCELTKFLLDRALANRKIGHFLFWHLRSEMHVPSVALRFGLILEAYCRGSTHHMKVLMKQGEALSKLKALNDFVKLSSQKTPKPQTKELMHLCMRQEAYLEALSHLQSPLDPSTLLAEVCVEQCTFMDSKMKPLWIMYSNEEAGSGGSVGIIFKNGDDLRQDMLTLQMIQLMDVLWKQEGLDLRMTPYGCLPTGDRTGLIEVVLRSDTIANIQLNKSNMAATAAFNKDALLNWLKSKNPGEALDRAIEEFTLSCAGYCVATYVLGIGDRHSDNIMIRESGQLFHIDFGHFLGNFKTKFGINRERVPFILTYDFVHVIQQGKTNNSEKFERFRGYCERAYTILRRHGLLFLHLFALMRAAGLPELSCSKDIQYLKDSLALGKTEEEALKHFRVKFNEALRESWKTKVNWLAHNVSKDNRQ
T2 sequence (P27986 whole entry partner): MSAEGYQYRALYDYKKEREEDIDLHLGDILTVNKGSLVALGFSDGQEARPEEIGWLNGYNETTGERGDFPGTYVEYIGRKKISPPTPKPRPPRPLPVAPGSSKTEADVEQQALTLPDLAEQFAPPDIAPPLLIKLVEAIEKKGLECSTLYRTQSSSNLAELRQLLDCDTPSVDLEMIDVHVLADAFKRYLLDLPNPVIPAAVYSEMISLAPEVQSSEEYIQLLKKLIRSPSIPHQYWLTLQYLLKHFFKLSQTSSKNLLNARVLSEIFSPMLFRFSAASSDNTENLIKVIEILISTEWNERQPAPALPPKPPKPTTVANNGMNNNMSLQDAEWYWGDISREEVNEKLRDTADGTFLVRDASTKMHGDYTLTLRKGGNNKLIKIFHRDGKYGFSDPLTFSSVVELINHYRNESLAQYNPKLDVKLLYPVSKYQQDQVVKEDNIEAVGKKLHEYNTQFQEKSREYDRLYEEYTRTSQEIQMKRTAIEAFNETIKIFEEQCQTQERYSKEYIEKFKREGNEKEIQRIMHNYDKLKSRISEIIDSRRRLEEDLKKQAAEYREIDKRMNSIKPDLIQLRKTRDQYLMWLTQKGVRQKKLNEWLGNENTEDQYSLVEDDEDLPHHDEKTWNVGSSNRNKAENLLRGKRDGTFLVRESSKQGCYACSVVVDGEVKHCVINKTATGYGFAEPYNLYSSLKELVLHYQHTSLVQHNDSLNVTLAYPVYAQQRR
Procedure: as §1, §2, §3, §4, §5

[3] = target: T3, PI3Kα (Homo sapiens, UniProt P42336); experiment: In vitro determination of the PI3K enzyme inhibitory activity in the cell free assay (ADP-Glo Kinase Assay), PI3Kα; conditions: ATP 50 μM, read-out: PI3K alpha inhibition
T3 construct: purchased Millipore Ltd (Billerica, Mass.)
T3 sequence (P42336 whole entry): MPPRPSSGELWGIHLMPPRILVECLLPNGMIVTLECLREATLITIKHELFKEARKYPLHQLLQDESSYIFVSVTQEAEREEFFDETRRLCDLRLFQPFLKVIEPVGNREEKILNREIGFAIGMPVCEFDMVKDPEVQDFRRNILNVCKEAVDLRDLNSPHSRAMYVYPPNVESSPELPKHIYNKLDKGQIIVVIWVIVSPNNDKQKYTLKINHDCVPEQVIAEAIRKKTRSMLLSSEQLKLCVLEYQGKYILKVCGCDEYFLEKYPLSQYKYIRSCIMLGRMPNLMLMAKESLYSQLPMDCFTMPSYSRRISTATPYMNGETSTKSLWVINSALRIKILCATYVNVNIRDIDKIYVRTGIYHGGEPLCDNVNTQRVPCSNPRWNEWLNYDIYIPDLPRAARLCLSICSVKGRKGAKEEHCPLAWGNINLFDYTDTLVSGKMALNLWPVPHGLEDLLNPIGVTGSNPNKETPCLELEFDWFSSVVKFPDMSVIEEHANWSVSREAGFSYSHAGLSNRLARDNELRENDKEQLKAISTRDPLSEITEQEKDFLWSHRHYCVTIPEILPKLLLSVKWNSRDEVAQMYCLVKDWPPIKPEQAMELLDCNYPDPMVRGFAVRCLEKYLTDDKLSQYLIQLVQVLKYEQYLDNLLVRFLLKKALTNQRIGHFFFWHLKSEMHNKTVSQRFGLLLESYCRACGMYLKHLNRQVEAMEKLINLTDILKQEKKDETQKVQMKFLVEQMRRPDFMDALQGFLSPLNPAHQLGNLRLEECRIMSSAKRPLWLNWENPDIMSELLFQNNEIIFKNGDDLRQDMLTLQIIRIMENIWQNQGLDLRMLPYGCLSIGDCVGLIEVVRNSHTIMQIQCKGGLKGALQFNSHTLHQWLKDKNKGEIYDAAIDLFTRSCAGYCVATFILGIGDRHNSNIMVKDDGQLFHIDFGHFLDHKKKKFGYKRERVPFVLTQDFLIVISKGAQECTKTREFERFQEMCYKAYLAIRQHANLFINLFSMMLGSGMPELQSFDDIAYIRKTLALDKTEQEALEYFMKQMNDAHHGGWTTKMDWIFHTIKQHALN
T3 sequence (P27986 whole entry partner): as the sequence (P27986 whole entry partner) above
Procedure: as §1, §2, §3, §4, §5

[4] = target: T4, PI3Kβ (Homo sapiens, UniProt P42338); experiment: In vitro determination of the PI3K enzyme inhibitory activity in the cell free assay (ADP-Glo Kinase Assay), PI3Kβ; conditions: ATP 100 μM, read-out: PI3K beta inhibition
T4 construct: purchased Millipore Ltd (Billerica, Mass.)
T4 sequence (P42338 whole entry): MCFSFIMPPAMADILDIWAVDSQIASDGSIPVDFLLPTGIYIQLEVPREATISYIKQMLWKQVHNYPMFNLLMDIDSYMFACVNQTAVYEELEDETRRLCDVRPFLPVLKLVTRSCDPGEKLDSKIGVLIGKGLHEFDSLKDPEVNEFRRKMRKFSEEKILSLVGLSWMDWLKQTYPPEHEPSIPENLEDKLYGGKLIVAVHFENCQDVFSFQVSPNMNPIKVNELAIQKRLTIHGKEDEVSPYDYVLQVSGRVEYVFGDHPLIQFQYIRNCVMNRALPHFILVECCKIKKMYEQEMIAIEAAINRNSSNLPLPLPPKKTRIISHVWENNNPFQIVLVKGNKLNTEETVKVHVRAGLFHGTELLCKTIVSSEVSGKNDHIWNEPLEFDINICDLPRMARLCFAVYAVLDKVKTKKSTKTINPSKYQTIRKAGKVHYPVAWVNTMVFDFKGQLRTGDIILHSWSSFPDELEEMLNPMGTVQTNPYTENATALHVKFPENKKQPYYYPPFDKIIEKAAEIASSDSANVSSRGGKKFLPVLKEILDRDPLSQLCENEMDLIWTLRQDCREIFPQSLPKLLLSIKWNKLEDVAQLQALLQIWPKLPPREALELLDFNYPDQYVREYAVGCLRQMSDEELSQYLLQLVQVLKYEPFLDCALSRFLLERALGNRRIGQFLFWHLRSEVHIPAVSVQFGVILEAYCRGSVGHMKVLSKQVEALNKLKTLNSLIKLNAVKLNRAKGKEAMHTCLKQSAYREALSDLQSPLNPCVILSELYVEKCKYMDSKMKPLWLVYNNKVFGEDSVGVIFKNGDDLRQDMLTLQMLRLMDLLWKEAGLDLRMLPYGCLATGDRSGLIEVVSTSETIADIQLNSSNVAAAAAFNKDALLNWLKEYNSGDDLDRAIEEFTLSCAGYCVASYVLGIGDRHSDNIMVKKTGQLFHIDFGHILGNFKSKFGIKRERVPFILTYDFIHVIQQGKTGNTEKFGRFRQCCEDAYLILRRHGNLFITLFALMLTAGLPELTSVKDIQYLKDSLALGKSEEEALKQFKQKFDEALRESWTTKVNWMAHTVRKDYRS
T4 sequence (P27986 whole entry partner): as the sequence (P27986 whole entry partner) above
Procedure: as §1, §2, §3, §4, §5

IC50 [1] [nM]	IC50 [2] [nM]	IC50 [3] [nM]	IC50 [4] [nM]	SMILES
> 1000	10 to 1000	> 1000	> 1000	N#Cc1c(N)ncnc1NCc1cc2ccccn2c1-c1ccccc1F [Example 25, 4-amino-6-({[3-(2-fluorophenyl)indolizin-2-yl]methyl}amino)pyrimidine-5-carbonitrile]
> 1000	10 to 1000	> 1000	> 1000	Cc1ccccc1-c1c(CNc2ncnc(N)c2C#N)cc2ccccn12 [Example 26, 4-amino-6-({[3-(2-methylphenyl)indolizin-2-yl]methyl}amino)pyrimidine-5-carbonitrile]
> 1000	> 1000	> 1000	> 1000	N#Cc1c(N)ncnc1NCc1cn2ccccc2c1-c1ccccc1 [Example 27, 4-amino-6-{[(1-phenylindolizin-2-yl)methyl]amino}pyrimidine-5-carbonitrile]
> 1000	10 to 1000	> 1000	> 1000	N#Cc1c(N)ncnc1NCc1cn2ccccc2c1-c1cccc(F)c1 [Example 28, 4-amino-6-({[1-(3-fluorophenyl)indolizin-2-yl]methyl}amino)pyrimidine-5-carbonitrile]
> 1000	10 to 1000	> 1000	> 1000	Cc1ccccc1-c1c(CNc2ncnc(N)c2C#N)cn2ccccc12 [Example 29, 4-amino-6-({[1-(2-methylphenyl)indolizin-2-yl]methyl}amino)pyrimidine-5-carbonitrile]
> 1000	10 to 1000	> 1000	> 1000	N#Cc1c(N)ncnc1NCc1cn2ccccc2c1-c1ccccn1 [Example 30, 4-amino-6-({[1-(pyridin-2-yl)indolizin-2-yl]methyl}amino)pyrimidine-5-carbonitrile]
> 1000	10 to 1000	> 1000	> 1000	CC(Nc1ncnc(N)c1C#N)c1cc2ccccn2c1-c1ccccc1 (stereo not drawn) [Example 32, 4-amino-6-{[1-(3-phenylindolizin-2-yl)ethyl]amino}pyrimidine-5-carbonitrile]
> 1000	10 to 1000	> 1000	10 to 1000	CC(Nc1ncnc(N)c1C#N)c1cc2ccccn2c1-c1ccccn1 (stereo not drawn) [Example 33, 4-amino-6-({1-[3-(pyridin-2-yl)indolizin-2-yl]ethyl}amino)pyrimidine-5-carbonitrile]
> 1000	10 to 1000	> 1000	> 1000	CC(Nc1ncnc(N)c1C#N)c1cc2ccccn2c1-c1cccs1 (stereo not drawn) [Example 37, 4-amino-6-({1-[3-(thiophen-2-yl)indolizin-2-yl]ethyl}amino)pyrimidine-5-carbonitrile]
10 to 1000	10 to 1000	> 1000	> 1000	CCC(Nc1ncnc(N)c1C#N)c1cc2ccccn2c1-c1ccccn1 (stereo not drawn) [Example 44, 4-amino-6-({1-[3-(pyridin-2-yl)indolizin-2-yl]propyl}amino)pyrimidine-5-carbonitrile]

The next lines start with the compound.

SMILES	IC50 [1] [nM]	IC50 [2] [nM]	IC50 [3] [nM]	IC50 [4] [nM]
N#Cc1c(N)ncnc1NCc1cc2ccccn2c1 [Example 31, 4-amino-6-[(indolizin-2-ylmethyl)amino]pyrimidine-5-carbonitrile]	> 1000	10 to 1000	> 1000	> 1000
CC(Nc1ncnc(N)c1C#N)c1cc2ccccn2c1-c1cccnc1 (stereo not drawn) [Example 34, 4-amino-6-({1-[3-(pyridin-3-yl)indolizin-2-yl]ethyl}amino)pyrimidine-5-carbonitrile]	10 to 1000	10 to 1000	> 1000	10 to 1000
CC(Nc1ncnc(N)c1C#N)c1cc2ccccn2c1-c1cnccn1 (stereo not drawn) [Example 35, 4-amino-6-({1-[3-(pyrazin-2-yl)indolizin-2-yl]ethyl}amino)pyrimidine-5-carbonitrile]	> 1000	10 to 1000	> 1000	10 to 1000
CC(Nc1ncnc(N)c1C#N)c1cc2ccccn2c1-c1ccncc1 (stereo not drawn) [Example 36, 4-amino-6-({1-[3-(pyridin-4-yl)indolizin-2-yl]ethyl}amino)pyrimidine-5-carbonitrile]	10 to 1000	10 to 1000	> 1000	10 to 1000
CC(Nc1ncnc(N)c1C#N)c1cc2ccccn2c1-c1ccsc1 (stereo not drawn) [Example 38, 4-amino-6-({1-[3-(thiophen-3-yl)indolizin-2-yl]ethyl}amino)pyrimidine-5-carbonitrile]	> 1000	10 to 1000	> 1000	> 1000
CC(Nc1ncnc(N)c1C#N)c1cc2c(F)cccn2c1-c1ccccn1 (stereo not drawn) [Example 39, 4-amino-6-({1-[8-fluoro-3-(pyridin-2-yl)indolizin-2-yl]ethyl}amino)pyrimidine-5-carbonitrile]	> 1000	< 10	> 1000	10 to 1000
Cc1cccc2cc(C(C)Nc3ncnc(N)c3C#N)c(-c3ccccn3)n12 (stereo not drawn) [Example 40, 4-amino-6-({1-[5-methyl-3-(pyridin-2-yl)indolizin-2-yl]ethyl}amino)pyrimidine-5-carbonitrile]	> 1000	< 10	> 1000	> 1000
Cc1cccn2c(-c3ccccn3)c(C(C)Nc3ncnc(N)c3C#N)cc12 (stereo not drawn) [Example 41, 4-amino-6-({1-[8-methyl-3-(pyridin-2-yl)indolizin-2-yl]ethyl}amino)pyrimidine-5-carbonitrile]	> 1000	10 to 1000	> 1000	> 1000
CC(Nc1ncnc(N)c1C#N)c1cc2ccccn2c1C1=CCOCC1 (stereo not drawn) [Example 42, 4-amino-6-({1-[3-(3,6-dihydro-2H-pyran-4-yl)indolizin-2-yl]ethyl}amino)pyrimidine-5-carbonitrile]	> 1000	10 to 1000	> 1000	10 to 1000
CCCC#Cc1c(C(C)Nc2ncnc(N)c2C#N)cc2ccccn12 (stereo not drawn) [Example 43, 4-amino-6-({1-[3-(pent-1-yn-1-yl)indolizin-2-yl]ethyl}amino)pyrimidine-5-carbonitrile]	> 1000	10 to 1000	> 1000	10 to 1000
CC(Nc1ncnc(N)c1C#N)c1cc2ccccn2c1C1=CCNCC1 (stereo not drawn) [Example 45, 4-amino-6-({1-[3-(1,2,3,6-tetrahydropyridin-4-yl)indolizin-2-yl]ethyl}amino)pyrimidine-5-carbonitrile]	> 1000	10 to 1000	> 1000	10 to 1000
CC(Nc1ncnc(N)c1C#N)c1cc2ccccn2c1C#CCO (stereo not drawn) [Example 46, 4-amino-6-({1-[3-(3-hydroxyprop-1-yn-1-yl)indolizin-2-yl]ethyl}amino)pyrimidine-5-carbonitrile]	10 to 1000	10 to 1000	> 1000	10 to 1000
CC(Nc1ncnc(N)c1C=O)c1cc2ccccn2c1-c1ccccn1 (stereo not drawn) [Example 47, 4-amino-6-({1-[3-(pyridin-2-yl)indolizin-2-yl]ethyl}amino)pyrimidine-5-carbaldehyde]	> 1000	10 to 1000	> 1000	10 to 1000
CC(Nc1ncnc(N)c1Br)c1cc2ccccn2c1-c1ccccn1 (stereo not drawn) [Example 48, 5-bromo-4-N-{1-[3-(pyridin-2-yl)indolizin-2-yl]ethyl}pyrimidine-4,6-diamine]	> 1000	10 to 1000	> 1000	> 1000
